Consider one compound from patent publication US12492370B2, “Method for producing protein using a Talaromyces cellulolyticus strain having reduced activity of PEP4” (AJINOMOTO CO., INC., priority 2020, dated 2025).

Non-standard residues stand in square brackets, D forms with d. Residues, ends and D or L forms follow the SMILES beside them. *: point of attachment. Sta = CC(C)C[C@H](N)[C@@H](O)CC(=O)O; Isovaleryl = CC(C)CC(=O)*

Test [1] relates to protease activity of the culture supernatant of the Δpep4 strain. The test is described as follows: Protease activity of Δpep4 strain culture supernatant with pepstatin A added. Format: biochemical, Talaromyces cellulolyticus. On the procedure: (§1) The protein concentration of the culture supernatant of each strain was measured using Protein Assay CBB (Nacalai Tesque). To confirm protease activity against casein, protease activity was measured using Amplite™ Universal Fluorimetric Protease Activity Assay Kit *Green (AAT Bioquest, Inc.). At the same time, protease activity was also measured under conditions in which an aspartate protease inhibitor pepstatin A was added.
(§2) A 50-μL aliquot of a 2× assay buffer included in the kit containing 0.5 μL of a protease substrate included in the kit (green fluorescent casein substrate) was dispensed into a 96-well plate (Greiner, product number: 655090), and 50 μL of the culture supernatants of the control strain and the Δpep4 strain were added to respective wells. Under conditions with pepstatin A addition, pepstatin A (Sigma-Aldrich, product number: P2032) was added at a final concentration of 10 μM. Protease activity was measured by measuring Relative Fluorescence Units (RFU, excitation/emission=490/525 nm) every 2 minutes at 37° C. using a microplate reader system SpectraMax® M2 (Molecular Devices). The obtained RFU was divided by the total amount of protein used in the measurement and the reaction time, to thereby calculate the protease specific activity per total amount of protein in the culture supernatant. In the table, the term “relative activity” represents the ratio of the protease specific activity of each sample to the protease specific activity of the control strain in the absence of pepstatin A. In the absence of pepstatin A, the protease specific activity of the culture supernatant of the Δpep4 strain was reduced to approximately 36% of that of the control strain.

Test [2] has as its system protease activity of the culture supernatant of the control strain. The test is described as follows: Protease activity of control strain culture supernatant with pepstatin A added. Format: biochemical, Talaromyces cellulolyticus. On the procedure:
as §1, §2

Setting [3] is: Pepstatin A 10 μM, ratio to control strain in the absence of pepstatin A.

With `CC(C)CC(=O)N[C@H](C(=O)N[C@H](C(=O)N[C@@H](CC(C)C)[C@@H](O)CC(=O)N[C@@H](C)C(=O)N[C@@H](CC(C)C)[C@@H](O)CC(=O)O)C(C)C)C(C)C` [Pepstatin A, pepstatin A] (Isovaleryl-VV[Sta]A[Sta]-OH), the Protease specific activity was found to be 0.016 RFU/ug/min in test [1] (Pepstatin A 10 μM, 37° C.) and 0.006 RFU/ug/min in test [2] (Pepstatin A 10 μM, 37° C.). Also, the Relative activity is listed as 34% in test [1] (setting [3]) and 12% in test [2] (setting [3]). The “difference in protease specific activity between presence or absence of pepstatin A” value in test [1] (pepstatin A 10 μM) is reported as “almost no difference”. Besides, the “protease specific activity inhibited by pepstatin A” value in test [2] (pepstatin A 10 μM) is recorded as “about 88%”.
